Test results from PubChem BioAssay (NCI).
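Following 48 hours of exposure in 96-well plates, responses at five concentrations were used to interpolate endpoints linearly. TGI is the concentration that stops growth completely.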

Key:
Experiment in all cases: NCI-60 cell line screen, 48 h
IGROV1 ovarian = tested on: IGROV1 ovarian
DU-145 prostate = tested on: DU-145 prostate
NCI-H460 lung = tested on: NCI-H460 lung
786-0 renal = tested on: 786-0 renal
SF-268 CNS = tested on: SF-268 CNS
HT29 colon = tested on: HT29 colon
CAKI-1 renal = tested on: CAKI-1 renal
HCC-2998 colon = tested on: HCC-2998 colon
HCT-15 colon = tested on: HCT-15 colon
HOP-92 NSCLC = tested on: HOP-92 NSCLC
SF-295 CNS = tested on: SF-295 CNS
NCI-H226 lung = tested on: NCI-H226 lung
SK-MEL-28 melanoma = tested on: SK-MEL-28 melanoma
U251 CNS = tested on: U251 CNS
BT-549 breast = tested on: BT-549 breast
NCI-H522 lung = tested on: NCI-H522 lung
TK-10 renal = tested on: TK-10 renal
KM12 colon = tested on: KM12 colon
HL-60(TB) leukemia = tested on: HL-60(TB) leukemia
MDA-N = tested on: MDA-N
A498 renal = tested on: A498 renal
HOP-62 NSCLC = tested on: HOP-62 NSCLC
M14 melanoma = tested on: M14 melanoma
SNB-19 CNS = tested on: SNB-19 CNS
OVCAR-4 ovarian = tested on: OVCAR-4 ovarian
OVCAR-3 ovarian = tested on: OVCAR-3 ovarian
HS 578T breast = tested on: HS 578T breast
SK-MEL-2 melanoma = tested on: SK-MEL-2 melanoma
MDA-MB-435 = tested on: MDA-MB-435
MDA-MB-231 breast = tested on: MDA-MB-231 breast
K-562 leukemia = tested on: K-562 leukemia
OVCAR-8 ovarian = tested on: OVCAR-8 ovarian
A549 NSCLC = tested on: A549 NSCLC
SNB-75 CNS = tested on: SNB-75 CNS
SW-620 colon = tested on: SW-620 colon
NCI/ADR-RES ovarian = tested on: NCI/ADR-RES ovarian
UACC-62 melanoma = tested on: UACC-62 melanoma
NCI-H23 lung = tested on: NCI-H23 lung
CCRF-CEM leukemia = tested on: CCRF-CEM leukemia
ACHN renal = tested on: ACHN renal
PC-3 prostate = tested on: PC-3 prostate
SR leukemia = tested on: SR leukemia
SN12C renal = tested on: SN12C renal
RXF 393 renal = tested on: RXF 393 renal
SK-OV-3 ovarian = tested on: SK-OV-3 ovarian
MCF7 breast = tested on: MCF7 breast
SF-539 CNS = tested on: SF-539 CNS
COLO 205 colon = tested on: COLO 205 colon
SK-MEL-5 melanoma = tested on: SK-MEL-5 melanoma
UO-31 renal = tested on: UO-31 renal
RPMI-8226 leukemia = tested on: RPMI-8226 leukemia
T-47D breast = tested on: T-47D breast
EKVX NSCLC = tested on: EKVX NSCLC
HCT-116 colon = tested on: HCT-116 colon
LOX IMVI melanoma = tested on: LOX IMVI melanoma
OVCAR-5 ovarian = tested on: OVCAR-5 ovarian
UACC-257 melanoma = tested on: UACC-257 melanoma
MALME-3M melanoma = tested on: MALME-3M melanoma

O=c1c2ccccc2nc(-c2ccccc2)n1O
TGI (IGROV1 ovarian): > 100 µM
TGI (DU-145 prostate): > 100 µM
TGI (NCI-H460 lung): > 100 µM
TGI (786-0 renal): > 100 µM
TGI (SF-268 CNS): > 100 µM
TGI (HT29 colon): > 100 µM
TGI (CAKI-1 renal): > 100 µM
TGI (HCC-2998 colon): > 100 µM
TGI (HCT-15 colon): > 100 µM
TGI (HOP-92 NSCLC): > 100 µM
TGI (SF-295 CNS): > 100 µM
TGI (NCI-H226 lung): > 100 µM
TGI (SK-MEL-28 melanoma): > 100 µM
TGI (U251 CNS): > 100 µM
TGI (BT-549 breast): > 100 µM
TGI (NCI-H522 lung): > 100 µM
TGI (TK-10 renal): > 100 µM
TGI (KM12 colon): > 100 µM
TGI (HL-60(TB) leukemia): > 100 µM
TGI (MDA-N): > 100 µM
TGI (A498 renal): > 100 µM
TGI (HOP-62 NSCLC): 37.4 µM
TGI (M14 melanoma): > 100 µM
TGI (SNB-19 CNS): > 100 µM
TGI (OVCAR-4 ovarian): > 100 µM
TGI (OVCAR-3 ovarian): > 100 µM
TGI (HS 578T breast): > 100 µM
TGI (SK-MEL-2 melanoma): > 100 µM
TGI (MDA-MB-435): > 100 µM
TGI (MDA-MB-231 breast): > 100 µM
TGI (K-562 leukemia): > 100 µM
TGI (OVCAR-8 ovarian): > 100 µM
TGI (A549 NSCLC): > 100 µM
TGI (SNB-75 CNS): > 100 µM
TGI (SW-620 colon): > 100 µM
TGI (NCI/ADR-RES ovarian): > 100 µM
TGI (UACC-62 melanoma): > 100 µM
TGI (NCI-H23 lung): > 100 µM
TGI (CCRF-CEM leukemia): > 100 µM
TGI (ACHN renal): > 100 µM
TGI (PC-3 prostate): > 100 µM
TGI (SR leukemia): > 100 µM
TGI (SN12C renal): > 100 µM
TGI (RXF 393 renal): > 100 µM
TGI (SK-OV-3 ovarian): > 100 µM
TGI (MCF7 breast): > 100 µM
TGI (SF-539 CNS): > 100 µM
TGI (COLO 205 colon): > 100 µM
TGI (SK-MEL-5 melanoma): > 100 µM
TGI (UO-31 renal): > 100 µM
TGI (RPMI-8226 leukemia): > 100 µM
TGI (T-47D breast): > 100 µM
TGI (EKVX NSCLC): > 100 µM
TGI (HCT-116 colon): > 100 µM
TGI (LOX IMVI melanoma): > 100 µM
TGI (OVCAR-5 ovarian): > 100 µM
TGI (UACC-257 melanoma): > 100 µM
TGI (MALME-3M melanoma): > 100 µM

CCOc1ccc2ccc3cccnc3c2n1
TGI (IGROV1 ovarian): > 100 µM
TGI (DU-145 prostate): > 100 µM
TGI (NCI-H460 lung): > 100 µM
TGI (786-0 renal): > 100 µM
TGI (SF-268 CNS): > 100 µM
TGI (HT29 colon): > 100 µM
TGI (CAKI-1 renal): > 100 µM
TGI (HCC-2998 colon): > 100 µM
TGI (HCT-15 colon): > 100 µM
TGI (HOP-92 NSCLC): > 100 µM
TGI (SF-295 CNS): > 100 µM
TGI (NCI-H226 lung): > 100 µM
TGI (SK-MEL-28 melanoma): > 100 µM
TGI (U251 CNS): > 100 µM
TGI (BT-549 breast): > 100 µM
TGI (NCI-H522 lung): > 100 µM
TGI (TK-10 renal): > 100 µM
TGI (KM12 colon): > 100 µM
TGI (HL-60(TB) leukemia): > 100 µM
TGI (MDA-N): > 100 µM
TGI (A498 renal): 76 µM
TGI (HOP-62 NSCLC): 61.4 µM
TGI (M14 melanoma): > 100 µM
TGI (SNB-19 CNS): > 100 µM
TGI (OVCAR-4 ovarian): > 100 µM
TGI (OVCAR-3 ovarian): 58.4 µM
TGI (HS 578T breast): > 100 µM
TGI (SK-MEL-2 melanoma): > 100 µM
TGI (MDA-MB-435): > 100 µM
TGI (MDA-MB-231 breast): > 100 µM
TGI (K-562 leukemia): > 100 µM
TGI (OVCAR-8 ovarian): > 100 µM
TGI (A549 NSCLC): > 100 µM
TGI (SNB-75 CNS): > 100 µM
TGI (SW-620 colon): > 100 µM
TGI (NCI/ADR-RES ovarian): > 100 µM
TGI (UACC-62 melanoma): 75.9 µM
TGI (NCI-H23 lung): > 100 µM
TGI (CCRF-CEM leukemia): > 100 µM
TGI (ACHN renal): > 100 µM
TGI (PC-3 prostate): > 100 µM
TGI (SR leukemia): 73 µM
TGI (SN12C renal): > 100 µM
TGI (RXF 393 renal): > 100 µM
TGI (SK-OV-3 ovarian): 95.2 µM
TGI (MCF7 breast): 45.8 µM
TGI (SF-539 CNS): > 100 µM
TGI (COLO 205 colon): > 100 µM
TGI (SK-MEL-5 melanoma): > 100 µM
TGI (UO-31 renal): > 100 µM
TGI (RPMI-8226 leukemia): 62.5 µM
TGI (T-47D breast): > 100 µM
TGI (EKVX NSCLC): > 100 µM
TGI (HCT-116 colon): > 100 µM
TGI (LOX IMVI melanoma): > 100 µM
TGI (OVCAR-5 ovarian): > 100 µM
TGI (UACC-257 melanoma): 85.1 µM
TGI (MALME-3M melanoma): > 100 µM
